Results from publication PMC5025041 (Journal of chromatography. A, 2015).
Where two headings read alike, the source gives them in different places.

Assays:
[1] = tested on: Pgp; details: in vitro models; cited from earlier work
[2] = tested on: P-glycoprotein (Pgp); details: not told; cited from earlier work
[3] = human, in vivo
[4] = human, in vivo; remark: listed apart in the source
[5] = subject 8 dosed with O-DVX, with indinavir therapy, 1 hr and 4 hrs
[6] = tested on: CYP3A4; details: cited from earlier work

Compound: CC(C)(C)NC(=O)[C@@H]1CN(Cc2cccnc2)CCN1C[C@@H](O)C[C@@H](Cc1ccccc1)C(=O)N[C@H]1c2ccccc2C[C@H]1O [indinavir]
- inhibition of Pgp [1]: potent inhibitor

Compound: COc1ccc(C(CN(C)C)C2(O)CCCCC2)cc1 (centres unmarked) [VX, venlafaxine]
- substrate of the drug transporter P-glycoprotein (Pgp) [2]: substrates

Compound: CN(C)CC(c1ccc(O)cc1)C1(O)CCCCC1 (centres unmarked) [O-DVX, O-desmethylvenlafaxine]
- peak height ratio S- to R-enantiomer in plasma [3]: 0.50-15.2
- substrate of the drug transporter P-glycoprotein (Pgp) [2]: substrates
- S/R ratio of peak height in plasma ([4]; 1 h): 0.83
- S/R ratio of peak height in plasma ([4]; 4 h): 0.98
- S/R ratio of peak height in plasma [5]: remains less than one

Compound: CC(=O)N1CCN(c2ccc(OCC3COC(Cn4ccnc4)(c4ccc(Cl)cc4Cl)O3)cc2)CC1 (centres unmarked) [ketoconazole]
- reduction of N-desmethyl VX formation [6]: 42%
